Where no end group is shown, it is not given here.
What was measured:
AFP+/HLA A2.1+ HepG2 = test: 4 hour 51Cr-release assay of peptide-generated CTL against HepG2; type: cell-based, human
Experimental: IL-2 was added twice weekly at 10 units/ml. […] Non-specific NK killing was assessed with the NK sensitive target K562. The CTL were also tested against the HLA A2.1-positive, AFP-positive human hepatocellular carcinoma cell line, HepG2. Referring now to Table III, there are shown the cytotoxicity results of tests for the twelve AFP peptide sequences used to generate CTL from normal donors that gave positive peptide cytotoxicity results. […] Further, new AFP49 peptide-generated CTL cultures were made using two different, normal HLA A2.1 donors. Additional targets were used to confirm that the cytotoxicity observed using AFP49 was AFP antigen-specific and class I restricted. Referring now to FIG. 1, there is shown representative data of these tests. First, to confirm that the observed cytotoxicity was class I restricted, anti-β2 microglobulin antibody was used to block the CTL-T cell receptor interaction on HepG2 cells. […] Next, to eliminate non-specific NK/LAK killing, a 40-fold excess of unlabeled (cold) K562 cells was added. […] Also, an AFP+, HLA A2.1-negative hepatocellular carcinoma cell line, Hep3B, that is, a class I-mismatched hepatocellular carcinoma cell line, was also used as a target. […] This small amount of observed Hep3B lysis was eliminated by adding an excess of cold K562 cells, in contrast to the retention of specific killing of HepG2 when cold K562 cells were added.

HLA A2.1 [1] = molecular target: T1, HLA A2.1 (Homo sapiens, UniProt P04439, D140Y/D185E/D98H/E176V/E277Q/G131W/G231S/I119V/I121R/I166T/I218V/L300P/L318F/N151K/N90K/P208A/P217A/Q86G/Q94H/R138H/R169H/T345S); test: EBV lymphoblastoid cell off-kinetics assay; type: binding; settings: for Time of Peptide Stability on Lymphoblastoid Cells: pulsed at 200 μM for 1 hour, followed 0, 2, 4 and 6 hours at 37° C., (n.s.) = not stable
Text: The cells were washed at the end of each time point and stained for HLA A2 with the BB7.2 antibody.

HLA A2.1 [2] = molecular target: T1, HLA A2.1; test: T2 cell stabilization assay; type: binding; settings: peptide tested 0.1 μM-100 μM; flow cytometry with BB7.2; (n.s.) = not stable
[3] = system: M202 (HLA A2.1+/AFP-) melanoma cells transduced with AdVhAFP; test: chromium release assay of peptide-specific CTL against M202 cells transduced with AdVhAFP or control AdVRR5; type: cell-based, human; settings: FIG. 2
[4] = system: T2 cells pulsed with the specific peptide; settings: FIG. 2; T2 pulsed with specific peptide versus a different HLA A2.1 binding peptide

FMNKFIYEI [AFP5]
AFP+/HLA A2.1+ HepG2 Cytotoxicity (AFP+/HLA A2.1+ HepG2; E:T 5:1): 4% | AFP+/HLA A2.1+ HepG2 Cytotoxicity (AFP+/HLA A2.1+ HepG2; E:T 20:1): 7%

FQAITVTKL [AFP45]
AFP+/HLA A2.1+ HepG2 Cytotoxicity (AFP+/HLA A2.1+ HepG2; E:T 10:1): 9% | AFP+/HLA A2.1+ HepG2 Cytotoxicity (AFP+/HLA A2.1+ HepG2; E:T 50:1): 27%

FQKLGEYYL [AFP34, residues 419-427 of hAFP]
Time of Peptide Stability on Lymphoblastoid Cells (HLA A2.1 [1]): (n.s.) | Minimum Concentration of Peptide to Stabilize A2 on T2 cells (HLA A2.1 [2]): 100 µM

FVQEATYKF [AFP8, residues 54-62 of hAFP]
Time of Peptide Stability on Lymphoblastoid Cells (HLA A2.1 [1]): >2 h | Minimum Concentration of Peptide to Stabilize A2 on T2 cells (HLA A2.1 [2]): (n.s.)

GVALQTMKL (listed as Homo sapiens) [AFP49L9, single amino acid substitution in position 9 of AFP49]
killing of M202/AdVhAFP compared with AFP49 peptide-specific CTL cultures [3]: even more effectively | killing of M202/AdVhAFP versus M202/RR5 [3]: significantly more killing of M202 cells transduced with AdVhAFP

GVALQTMKQ [AFP49]
AFP+/HLA A2.1+ HepG2 Cytotoxicity (AFP+/HLA A2.1+ HepG2; E:T 10:1): 17% | AFP+/HLA A2.1+ HepG2 Cytotoxicity (AFP+/HLA A2.1+ HepG2; E:T 50:1): 45%

GVALQTMKV (listed as Homo sapiens) [AFP49V9]
killing of M202/AdVhAFP compared with AFP49 peptide-specific CTL cultures [3]: even more effectively | killing of M202/AdVhAFP versus M202/RR5 [3]: significantly more killing of M202 cells transduced with AdVhAFP | peptide specificity of CTL culture [4]: showed peptide specificity

ILLWAARYD [AFP18, residues 178-186 of hAFP]
Time of Peptide Stability on Lymphoblastoid Cells (HLA A2.1 [1]): >6 h | Minimum Concentration of Peptide to Stabilize A2 on T2 cells (HLA A2.1 [2]): (n.s.)

KELRESSLL [AFP16, residues 211-219 of hAFP]
Time of Peptide Stability on Lymphoblastoid Cells (HLA A2.1 [1]): 2 h | Minimum Concentration of Peptide to Stabilize A2 on T2 cells (HLA A2.1 [2]): (n.s.)

KLVLDVAHV [AFP4]
AFP+/HLA A2.1+ HepG2 Cytotoxicity (AFP+/HLA A2.1+ HepG2; E:T 5:1): 4% | AFP+/HLA A2.1+ HepG2 Cytotoxicity (AFP+/HLA A2.1+ HepG2; E:T 20:1): 7%

KMVKDALTAI [AFP64, residues 65-74 of hAFP]
Time of Peptide Stability on Lymphoblastoid Cells (HLA A2.1 [1]): (n.s.) | Minimum Concentration of Peptide to Stabilize A2 on T2 cells (HLA A2.1 [2]): 100 µM

KQEFLINLV [AFP37]
AFP+/HLA A2.1+ HepG2 Cytotoxicity (AFP+/HLA A2.1+ HepG2; E:T 5:1): 0% | AFP+/HLA A2.1+ HepG2 Cytotoxicity (AFP+/HLA A2.1+ HepG2; E:T 25:1): 2%

LLNFTESRT [AFP7]
AFP+/HLA A2.1+ HepG2 Cytotoxicity (AFP+/HLA A2.1+ HepG2; E:T 10:1): 6% | AFP+/HLA A2.1+ HepG2 Cytotoxicity (AFP+/HLA A2.1+ HepG2; E:T 50:1): 15%

MKWVESIFL [AFP38]
AFP+/HLA A2.1+ HepG2 Cytotoxicity (AFP+/HLA A2.1+ HepG2; E:T 10:1): 0% | AFP+/HLA A2.1+ HepG2 Cytotoxicity (AFP+/HLA A2.1+ HepG2; E:T 50:1): 12%

NLVKQKPQI [AFP23]
AFP+/HLA A2.1+ HepG2 Cytotoxicity (AFP+/HLA A2.1+ HepG2; E:T 5:1): 2% | AFP+/HLA A2.1+ HepG2 Cytotoxicity (AFP+/HLA A2.1+ HepG2; E:T 20:1): 15%

PVNPGVGQC [AFP39]
AFP+/HLA A2.1+ HepG2 Cytotoxicity (AFP+/HLA A2.1+ HepG2; E:T 10:1): 12% | AFP+/HLA A2.1+ HepG2 Cytotoxicity (AFP+/HLA A2.1+ HepG2; E:T 50:1): 29%

QLTSSELMAI [AFP14, residues 441-450 of hAFP]
off-kinetics (in words) (HLA A2.1 [1]): slow off-kinetics | Time of Peptide Stability on Lymphoblastoid Cells (HLA A2.1 [1]): >2 h | Minimum Concentration of Peptide to Stabilize A2 on T2 cells (HLA A2.1 [2]): 50.0 µM

SLVVDETYV [AFP17, residues 514-522 of hAFP]
Time of Peptide Stability on Lymphoblastoid Cells (HLA A2.1 [1]): (n.s.) | Minimum Concentration of Peptide to Stabilize A2 on T2 cells (HLA A2.1 [2]): 1.0 µM

TLSNKITEC [AFP60, residues 294-302 of hAFP]
Time of Peptide Stability on Lymphoblastoid Cells (HLA A2.1 [1]): (n.s.) | Minimum Concentration of Peptide to Stabilize A2 on T2 cells (HLA A2.1 [2]): 50 µM

TMKQEFLINL [AFP22]
AFP+/HLA A2.1+ HepG2 Cytotoxicity (AFP+/HLA A2.1+ HepG2; E:T 5:1): 9% | AFP+/HLA A2.1+ HepG2 Cytotoxicity (AFP+/HLA A2.1+ HepG2; E:T 20:1): 24%

YICSQQDTL [AFP28, residues 287-295 of hAFP]
Time of Peptide Stability on Lymphoblastoid Cells (HLA A2.1 [1]): 2 h | Minimum Concentration of Peptide to Stabilize A2 on T2 cells (HLA A2.1 [2]): 50 µM

YIQESQALA [AFP13, residues 404-412 of hAFP]
Time of Peptide Stability on Lymphoblastoid Cells (HLA A2.1 [1]): >2 h | Minimum Concentration of Peptide to Stabilize A2 on T2 cells (HLA A2.1 [2]): 10.0 µM
